From US4918077A, “3-phenyl-5,6-dihydrobenz(c)acridine-7-carboxylic acids and related compounds as cancer chemotherapeutic agents” (E. I. Du Pont de Nemours & Co., Inc., priority 1989, dated 1990)
In brackets after ≈: the same amount, converted by molar mass.

Assays:
[1] = system: DLD-2 human colon carcinoma xenograft; assay: DLD-2 Human Colon Carcinoma Xenograft Test; format: in vivo, human tumor in athymic (NU/NU) mice; conditions: dose 50 mg/kg, intraperitoneal, once daily for nine days
Description: (§1) The efficacy of the compounds of this invention against transplanted mouse tumors was evaluated in test systems which are used by the National Cancer Institute for the detection and assessment of anticancer activity. […] J. Cancer, 17, 129-142, (1981); Venditti, J. M., Seminars in Oncology, 8(4)(1981); Goldin, A. and J. M. Venditti in Recent Results in Cancer Research, 70, S. K. Carter and Y. Sakurai, Eds., Springer-Verlag, Berlin/Heidelberg, 1980].
The DLD-2 tumor line was orignally obtained from a primary colon carcinoma surgically removed from a patient. The line is maintained by serial passage in athymic nude mice.
On day 0, male and female outbred Swiss mice bearing the NU/NU gene and weighing 22-30 g are inoculated with 0.2 mL of a 25% tumor mince. […] Tumor measurements and weights are recorded once a week. […]
The efficacy of the test compounds is determined by the extent of tumor growth inhibition in treated versus vehicle-treated control mice. Initial tumor weights (mg) are calculated from the tumor dimensions (mm) using the formula for the volume of a prolate ellipsoid (L×W^2 /2). Net tumor weights are calculated for each of the treated groups and the vehicle-treated control group by subtracting the initial tumor weight (estimated) from the final tumor weight (actual) on day 19. […] Results are expressed as percent inhibition of control growth according to the formula: [formula] […]

[2] = system: B16 melanoma; assay: B16 Murine Melanoma Test; format: in vivo, mouse; conditions: intraperitoneal, once daily for nine days
Description: as §1
The B16 tumor line arose spontaneously in 1954 on the skin at the base of the ear of a C57BL mouse. The tumor line is maintained by serial passage in female C57BL mice.
On day 0, female B6C3F1 mice are inoculated intraperitoneally with 0.5 mL of a 10% tumor brei. This brei is prepared by homogenizing fresh B16 tumors, grown subcutaneously in C57BL mice, in cold physiological saline. Mice are randomized in groups of ten each, with 20 animals being in the control group. The test compounds and vehicle control are administered intraperitoneally once daily for nine consecutive days beginning on day 1. A ≥20% decrease in body weight on day 5 is considered an indication of toxicity. The acceptable mean control survival time is 14-22 days. Results are expressed as a percentage of the mean survival time of the vehicle-treated control group according to the formula: [formula] […]

[3] = system: L1210 leukemia; assay: L1210 Murine Leukemia Test; format: in vivo, mouse; conditions: intraperitoneal, once daily for nine days
Description: as §1
The L1210 tumor line originated in 1948 as a lymphocytic leukemia in a female DBA/2 mouse after the skin was treated with 0.2% 20-methylcholanthrene in ethyl ether. The tumor line is maintained by serial passage in female DBA/2 mice.
On day, 0, female CDF1 mice weighing 18-22 g are inoculated with 1×10^5 L1210 leukemia cells harvested from the ascites of DBA/2 mice. The mice are randomized into groups of six each and the test compounds and vehicle control are administered intraperitoneally once daily for nine consecutive days beginning on day 1. A ≥20% decrease in body weight on day 5 is considered an indication of toxicity. The acceptable control mean survival time is 8-11 days.
Results are expressed as percentage of the mean survival time of the vehicle-treated control group according to the formula: [formula] Mice which survive for 30 days are considered cured and are not included in the calculation of the mean survival time.
The NCI criteria for activity is used. A compound is considered to have moderate activity against L1210 leukemia if it has a % T/C≥125%, and it is considered to have good activity against L1210 leukemia if it has a % T/C≥150%.

[4] = system: human melanoma RPMI-7272 cells; assay: In Vitro RPMI-7272 Human Melanoma Test; format: cell-based; conditions: 72 hours after addition of compound, read-out: ID50 (dose required to inhibit the number of cell doublings by 50%)
Description: The compounds of this invention were also tested for their ability to inhibit the growth of human melanoma RPMI-7272 cells in vitro.
Cells are seeded at 3×10^5 per 35 mm plate to initiate growth inhibition studies. Cultures to receive growth medium only (control cultures) are set up in quadruplicate; cultures to receive varying concentrations of compounds are set up at one dish per dose of compound. Twenty-four hours post-seeding, duplicate control cell cultures are trypsinized and cells are counted using a Coulter Counter (day 1 control counts). At this time, varying concentrations of test compounds, from 100 to 0.00001 μg/mL are added to cultures and growth medium only is added to control cultures. Seventy-two hours after the addition of compound, cells are trypsinized and counted. The numbers of cell population doublings (day 4) in the presence or absence of compound are calculated.
Compounds are dissolved at 10-25 mg/mL in dimethylsulfoxide. Dilutions to 1 mg/mL in complete growth medium are made, followed by stock preparations of 100 and 30 μg/mL in complete growth medium. Serial ten-fold dilutions in complete medium are formulated from the 100 and 30 μg/mL stocks, respectively, and added to cultures.

SMILES | % Inhibition (tumor growth) [1] [%] | % T/C (mean survival time, percentage of vehicle-treated control) ([2]; dose 35 mg/kg) [%] | % T/C (mean survival time, percentage of vehicle-treated control) ([3]; dose 100 mg/kg) [%] | IC50 [4] [µg/mL] | % T/C (mean survival time, percentage of vehicle-treated control) ([2]; dose 50 mg/kg) [%] | % T/C (mean survival time, percentage of vehicle-treated control) ([3]; dose 50 mg/kg) [%]
O=C(O)c1c2c(nc3ccc(F)cc13)-c1ccc(-c3ccccc3)cc1CC2 [Example 3, 5,6-Dihydro-9-fluoro-3-phenylbenz[c]acridine-7-carboxylic acid] | 70 | 134 | 180 | 0.05 (≈ 0.135 µM) |  | 
O=C(O)c1c2c(nc3ccccc13)-c1cc3sc4ccccc4c3cc1CC2 [Example 24] |  |  |  | 1.96 (≈ 5.14 µM) |  | 
O=C([O-])c1c2c(nc3ccc(F)cc13)-c1ccc(-c3ccccc3)cc1CC2.[Na+] [Example 12, 5,6-Dihydro-9-fluoro-3-phenylbenz[c]acridine-7-carboxylic acid, sodium salt] |  |  |  | 0.06 | 140 | 171
O=C(O)c1c2c(nc3ccc(F)cc13)-c1cc3sc4ccccc4c3cc1CC2 [Example 27, 6,7-Dihydro-3-fluoro[1]-benzothieno[2',3':4,5]benz[1,2-c]acridine-5-carboxylic acid] |  |  | 149 | 1.4 (≈ 3.5 µM) |  | 
O=C(O)c1c2c(nc3ccccc13)-c1ccc(-c3ccccc3)cc1CC2 [Example 1, 5,6-Dihydro-3-phenylbenz[c]acridine-7-carboxylic acid] |  |  | 178 | 14.1 (≈ 40.1 µM) |  | 
